Experimental data taken from patent US11753403B2, “EIF4E inhibitors and uses thereof” (PIC Therapeutics, Inc., priority 2020, dated 2023).

Molecular target: Human eIF4E (aa 28-217) / biotin labeled 4G2 peptide (Homo sapiens (Human), UniProt P06730)
Assay: Human eIF4E/4G2 binding assay (TR-FRET)
Settings: Human eIF4E/4G2 TR-FRET binding assay; head says IC50, legend says EC50
Experimental: Example 5. Compound Testing in Human eIF4E/4G2 Binding Assay
Human eIF4E (aa 28-217) with a C-terminal His-tag was expressed in E. coli in inclusion bodies. The protein was solubilized with 8 M urea and purified under denaturing conditions using nickel-charged HisTrap HP columns (GE Healthcare). The purified protein was then refolded by diluting in 20 mM Hepes pH 7.0, 0.5 M NaCl, 1 mM DTT, 1 mM EDTA, 0.5 M arginine plus 6 M urea, and then dialyzing overnight into the same buffer without the urea. The protein was further dialyzed into 20 mM Hepes, pH 6.5, 50 mM NaCl, 1 mM EDTA, 1 mM DTT, and concentrated using Hitrap SP sepharose FF columns (GE Healthcare). The concentrated protein was dialyzed into 20 mM Hepes, pH 7.0, 0.5M NaCl, 5 mM DTT and 10% glycerol, and stored at −80° C. until use.
Test compounds (3.43 mM stock in DMSO) were diluted 2-fold in series in DMSO (10 concentration points). Compound solutions (1.2 μl/well) were added into black 384-well polypropylene microplates (Matrix, Thermal Scientific). Twenty-two microliters per well of Assay Buffer (50 mM NaPi, pH 6.5, 50 mM KCl, 1 mM DTT and 0.5 mg/ml gamma globulin) and eight microliters per well of 82.5 nM purified eIF4E in Assay Buffer were added. The samples were incubated at room temperature (20-23° C.) for 4 hours. Biotin labeled 4G2 peptide (Ac-Lys-Gln-Tyr-Asp-Arg-Glu-Phe-Leu-Leu-Asp-Phe-Gln-Phe-Met-Pro-Lys(Aha-Bio)-NH2, 1.75 μM stock in DMSO) was diluted to 0.14 μM in Assay Buffer (without DTT) and 5 μl/well was added. The samples were incubated at room temperature for 20 min. Five microliters per well of 6.4 nM Eu-streptavidin (Eu-SA, Perkin Elmer) and 80 nM Allophycocyanin (APC)-anti His antibody (Columbia Biosciences) in Assay Buffer (without DTT) were then added and the samples were incubated at room temperature for 20 min.
Assay signals were monitored by reading excitation at 340 nm and emission fluorescence at 615 nm and 665 nm on an Envision reader (Perkin Elmer). Normalized TR-FRET (time-resolved fluorescence resonance energy transfer) assay signal (Rn) was calculated by the formula: Rn=[(A−Ba−C×D)/(D−Bd)]×(Dc−Bd) Where A is the fluorescence intensity of the sample at 665 nm, • D is the fluorescence intensity of the sample at 615 nm, • Ba and Bd are plate backgrounds at 665 nm and 615 nm, respectively, • Dc is the fluorescence intensity of 0.78 nM Eu-SA in the assay buffer at 615 nm The cross-talk factor (C) is determined by the following formula: C=(Ac−Ba)/(Dc−Bd) Where Ac is the fluorescence intensity of 0.78 nM Eu-SA in the assay buffer at 665 nm.
IC50 values were calculated using xLFit program (IDBS). Table 2 below lists EC50 of some compounds, wherein A represents EC50≤1 uM; B represents 1 uM<EC50≤10 uM; and C represents EC50>10 uM.

Human eIF4E (aa 28-217) / biotin labeled 4G2 peptide, sequence (P06730 28-217): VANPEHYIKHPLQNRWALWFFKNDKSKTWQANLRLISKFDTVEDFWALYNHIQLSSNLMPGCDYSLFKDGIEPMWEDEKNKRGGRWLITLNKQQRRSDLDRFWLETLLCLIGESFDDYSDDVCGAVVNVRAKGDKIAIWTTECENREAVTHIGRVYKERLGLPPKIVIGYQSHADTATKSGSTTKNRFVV

| IC50 [µM] | Compound |
| --- | --- |
| ≤ 1 | CC(C)Cc1sc(N(CCC(=O)O)Cc2cccs2)nc1-c1ccc(Cl)c(Cl)c1 [I-65] |
| 1 to 10 | CC(C)Cc1sc(N(CCO)CCC(=O)O)nc1-c1ccc(Cl)c(Cl)c1 [I-66] |
| 1 to 10 | COCCN(CCC(=O)O)c1nc(-c2ccc(Cl)c(Cl)c2)c(CC(C)C)s1 [I-67] |
| 1 to 10 | Cc1noc(CN(CCC(=O)O)c2nc(-c3ccc(Cl)c(Cl)c3)c(CC(C)C)s2)n1 [I-68] |
| 1 to 10 | CC(C)Cc1sc(N(CCC(=O)O)CC2CCCO2)nc1-c1ccc(Cl)c(Cl)c1 (stereo not shown) [I-69] |
| 1 to 10 | CC(C)Cc1sc(N(CCCO)CCC(=O)O)nc1-c1ccc(Cl)c(Cl)c1 [I-70] |
| > 10 | CC(C)Cc1sc(N(CCCN(C)C)CCC(=O)O)nc1-c1ccc(Cl)c(Cl)c1 [I-71] |
| > 10 | CC(C)Cc1sc(N(CCC(=O)O)CCN(C)C)nc1-c1ccc(Cl)c(Cl)c1 [I-72] |
| 1 to 10 | CC(C)Cc1sc(N(CCC(=O)O)Cc2ccc(O)cc2)nc1-c1ccc(Cl)c(Cl)c1 [I-73] |
| ≤ 1 | CC(C)c1sc(N(CCC(=O)O)Cc2ccccc2)nc1-c1ccc(Cl)c(Cl)c1 [I-74] |
| 1 to 10 | Cc1ccc(-c2nc(N(CCC(=O)O)Cc3ccccc3)sc2C(C)C)cc1C [I-75] |
| > 10 | COc1ccc(-c2nc(N(CCC(=O)O)Cc3ccccc3)sc2C(C)C)cc1 [I-76] |
| 1 to 10 | CC(C)c1sc(N(CCC(=O)O)Cc2ccccc2)nc1-c1ccc(F)c(F)c1 [I-77] |
| 1 to 10 | CC(C)c1sc(N(CCC(=O)O)Cc2ccccc2)nc1-c1ccc(F)c(Cl)c1 [I-78] |
| 1 to 10 | CC(C)Cc1sc(N(CCC(=O)O)Cc2ccccc2)nc1-c1cccc(Cl)c1 [I-79] |
| 1 to 10 | COc1ccc(-c2nc(N(CCC(=O)O)Cc3ccccc3)sc2CC(C)C)cc1Cl [I-80] |

| IC50 [µM] | Compound |
| --- | --- |
| 1 to 10 | CC(C)Cc1sc(N(CCC(=O)O)Cc2ccccc2)nc1-c1cc(F)c(F)c(F)c1 [I-81] |
| 1 to 10 | CC(C)Cc1sc(N(CCC(=O)O)Cc2ccccc2)nc1-c1cccc(F)c1 [I-82] |
| > 10 | CC(C)Cc1sc(N(CCC(=O)O)Cc2ccccc2)nc1-c1cccnc1 [I-83] |
| > 10 | CC(C)Cc1sc(N(CCC(=O)O)Cc2ccccc2)nc1-c1ccncc1 [I-84] |
| 1 to 10 | CC(C)Cc1sc(N(CCC(=O)O)Cc2ccccc2)nc1-c1ccc2[nH]ccc2c1 [I-85, 3-((4-(1H-indol-5-yl)-5-isobutylthiazol-2-yl)(benzyl)amino)propanoic acid] |
| > 10 | CC(C)Cc1sc(N2CCN(C)C(C(=O)O)C2)nc1-c1ccc(Cl)c(Cl)c1 (stereo not shown) [I-86] |
| ≤ 1 | CC(C)Cc1sc(N(CCC(=O)O)CC2CCCCC2)nc1-c1ccc(Cl)c(Cl)c1 [I-87] |
| > 10 | CC(C)Cc1sc(N(CCC(=O)O)CC2CCN(C)CC2)nc1-c1ccc(Cl)c(Cl)c1 [I-88] |
| > 10 | CN(C)Cc1sc(N(CCC(=O)O)Cc2ccccc2)nc1-c1ccc(Cl)c(Cl)c1 [I-89, 3-(benzyl(4-(3,4-dichlorophenyl)-5-((dimethylamino)methyl)thiazol-2-yl)amino)propanoic acid] |
| 1 to 10 | CC(C)Cc1sc(N(CCC(=O)O)Cc2ccccc2)nc1-c1ccc(Cl)cc1 [I-93] |
| ≤ 1 | CC(C)Cc1sc(N(CCC(=O)O)CCc2cccc(Cl)c2)nc1-c1ccc(Cl)c(Cl)c1 [I-94] |
| ≤ 1 | CC(C)Cc1sc(N(CCCc2ccccc2)CCC(=O)O)nc1-c1ccc(Cl)c(Cl)c1 [I-96] |
| 1 to 10 | CC(C)Cc1sc(N(CCC(=O)NS(C)(=O)=O)Cc2ccccc2)nc1-c1ccc(Cl)c(Cl)c1 [I-97, 3-(benzyl(4-(3,4-dichlorophenyl)-5-isobutylthiazol-2-yl)amino)-N-(methylsulfonyl)propanamide] |
| 1 to 10 | CC(=O)NS(=O)(=O)CCN(Cc1ccccc1)c1nc(-c2ccc(Cl)c(Cl)c2)c(CC(C)C)s1 [I-99, N-(2-(benzyl(4-(3,4-dichlorophenyl)-5-isobutylthiazol-2-yl)amino)ethylsulfonyl)acetamide] |
| ≤ 1 | CC(C)Cc1sc(N(CCc2nnn[nH]2)Cc2ccccc2)nc1-c1ccc(Cl)c(Cl)c1 [I-100] |
